Assay results taken from patent US20230172894A1, “COMBINATION TREATMENT FOR FUMARATE-RELATED DISEASES” (IMCYSE SA, priority 2020, published 2023).
Counter-ions that a name gives are not always drawn. Like-named read-outs stand apart in the source and are kept apart here.

Assays:
[1] = test system: experimental auto-immune encephalomyelitis (EAE) development in mice; test: Example 1: spinal cord histology (H&E inflammatory foci, anti-MBP demyelination score) in EAE mice; format: in vivo, female C57BL/6 mice; details: vs negative control, combination also vs each single treatment
Procedure: At the end of the study, all mice were euthanized, and spines were collected and placed in 10% buffered formalin for histological analysis.
For each spine, one H&E stained slide and one anti-MBP stained slide were prepared and analyzed. Each slide contained a section with samples from lumbar, thoracic and cervical of spinal cord (3 samples). All analysis was performed by a pathologist blinded to the experimental groups and all clinical readouts.
Inflammatory foci of approximately 20 cells were counted in each H&E stained section. When inflammatory infiltrates consisted of more than 20 cells, an estimate was made of how many foci of 20 cells were present.
Demyelination was scored in each anti-MBP (using immunohistochemistry) stained section. In anti-MBP sections, demyelination is observed as conspicuous unstained areas in white matter tracts and is associated with presence of large vacuoles. The demyelination score represents an estimate of demyelinated area for each section as follows: […]

[2] = test system: experimental auto-immune encephalomyelitis (EAE) development in mice; details: Example 3; for mice died in group: 16 mice per group
Text: Example 3: Effect of the therapeutic administration of an immunogenic peptide comprising a MOG35-55 MHCII T cell epitope linked to a KCRC (SEQ ID NO: 65) or KCRPYC (SEQ ID NO: 84) oxidoreductase motif in combination with dimethyl fumarate (BG-12, […]™) on experimental auto-immune encephalomyelitis (EAE) development in mice.
The study used a total of 128 female C57BL/6 mice (Taconic Biosciences, 9 weeks old on Day 0). Mice were acclimated for 7 days prior to the first injection. Mice were assigned to groups in a balanced manner to achieve similar average weight across the groups at the start of the study.
Treatment 1 was administered once on each of the days indicated in Table 4, s.c., at a volume of 0.05 mL/site, each mouse receiving injection at two sites, for a total of 0.1 mL/mouse/dosing day. IMCY-0189 (CXXC oxidoreductase motif, IMCY-0453 (CXC oxidoreductase motif) or IMCY-0455 (CXXXC oxidoreductase motif) peptide total dose was 30 μg per administration.
(§1) BG-12 was dosed at 100 mg/kg.
(§2) All dosing were done at the same time (+/−1 hour) each dosing day. For the BID groups there were no less than 10 and no more than 14 hours between doses.
(§3) (SEQ ID NO: 266), comprising an oxidoreductase motif KCRC (SEQ ID NO: 65), a linker GW, a murine Myelin Oligodendrocyte Glycoprotein (MOG35-55) MHCII T cell epitope […] (SEQ ID NO: 169) and a flanking sequence HLYR (SEQ ID NO: 186) (Smart Bioscience) was solubilized immediately before use. Lyophilized IMCY-0453 was thawed at room temperature for 10 minutes, resuspended in Na Acetate buffer 50 mM NaCl 0.9% pH 5.4 and incubated at room temperature for 10 minutes. Reconstituted peptide was then mixed with Imject™ Alum Adjuvant before injection.
as §3, with “268),” for “266),”, “KCRPYC” for “KCRC”, “84),” for “65),”, “IMCY-0455” for “IMCY-0453”
(§4) Treatment 2 was prepared as described in example 2.
EAE induction, scoring and statistical analysis were performed as described in example
(§5) EAE development was evaluated by comparing clinical EAE readouts for all groups to the negative control (Saline/Vehicle) group.

[3] = test system: experimental auto-immune encephalomyelitis (EAE) development in mice; test: Example 3: serum neurofilament light (NF-L) levels in EAE mice; format: in vivo, female C57BL/6 mice; details: Day 28 serum, vs negative control
Procedure: (§6) On Day 28, blood was collected from all mice into gel clot activator tubes and allowed to clot at room temperature for ˜30 minutes. Blood is then centrifuged at ˜10000 g for 5 minutes. Serum was transferred into Eppendorf tubes and stored at −80° C. until shipment to Quanterix™. Serum Neurofilament light (NF-L) protein levels were quantified using Simoa® NF-light Advantage kit as described in example 1.

[4] = test system: experimental auto-immune encephalomyelitis (EAE) development in mice; details: Example 4; for mice died in group: 16 mice per group; for disease onset: peptide 30 μg/Alum s.c. days 4, 9, 14, 19, BG-12 100 mg/kg p.o. BID days 0 to 27; for disease onset / AUC (area under the curve) of EAE scores / MMS (mean maximal score) / end score (clinical EAE score 0-5): vs negative control, combinations also vs peptides only or BG-12 only
Text: Example 4: Effect of the therapeutic administration of an immunogenic peptide comprising a human MOG201-212 MHCII T cell epitope linked to a KHCPYC oxidoreductase motif in combination with dimethyl fumarate (BG-12, […]™) on experimental auto-immune encephalomyelitis (EAE) development in mice.
The study used a total of 96 female C57BL/6 mice (Taconic Biosciences, 9 weeks old on Day 0). Mice were acclimated for 7 days prior to the first injection. Mice were assigned to groups in a balanced manner to achieve similar average weight across the groups at the start of the study.
Treatment 1 was administered once on each of the days indicated in Table 5, s.c., at a volume of 0.05 mL/site, each mouse receiving injection at two sites, for a total of 0.1 mL/mouse/dosing day. IMCY-0189 or P4 peptide total dose was 30 μg per administration.
as §1, §2
Lyophilized immunogenic peptide P4 with the sequence […] (SEQ ID NO: 176), comprising an oxidoreductase motif KHCPYC (SEQ ID NO: 77), a linker VRY, a human Myelin Oligodendrocyte Glycoprotein (MOG201-212) MHCII T cell epitope […] (SEQ ID NO: 165) and a flanking sequence TLFKK (SEQ ID NO: 267) (Smart Bioscience) was solubilized immediately before use. Lyophilized P4 was thawed at room temperature for 10 minutes, resuspended in Na Acetate buffer 50 mM NaCl 0.9% pH 5.4 and incubated at room temperature for 10 minutes. Reconstituted peptide was then mixed with Imject™ Alum Adjuvant before injection.
as §4
EAE induction, scoring and statistical analysis were performed as described in example 2.
as §5

[5] = test system: experimental auto-immune encephalomyelitis (EAE) development in mice; test: Example 4: serum neurofilament light (NF-L) levels in EAE mice; format: in vivo, female C57BL/6 mice; details: Day 28 serum, vs negative control
Procedure: as §6
Serum neurofilaments levels were quantified as described in example 3.

Compound	level of inflammation (inflammatory foci in H&E stained spinal cord sections) [1]	mice died in group [2]	disease onset ([2]; peptide 30 μg/Alum s.c. days 4, 9, 14, 19, BG-12 100 mg/kg p.o. BID days 0 to 27, vs negative control)	AUC (area under the curve) of EAE scores ([2]; vs negative control)	MMS (mean maximal score) ([2]; vs negative control)	end score (clinical EAE score 0-5) ([2]; vs negative control)	serum NF-L levels [3]	mice died in group [4]	disease onset [4]	AUC (area under the curve) of EAE scores [4]	MMS (mean maximal score) [4]	end score (clinical EAE score 0-5) [4]	serum NF-L levels [5]	level of demyelination (anti-MBP stained sections, score 0-5) [1]
COC(=O)/C=C/C(=O)OC [BG-12, dimethyl fumarate, reference compound]	reduced level of inflammation, although not statistically significant	No mice died	postponed disease onset	statistically significant reduced	statistically significant reduced	reduced end score	statistically significant reduced NF-L levels	No mice died	postponed disease onset	statistically significant reduced	statistically significant reduced	reduced end score	statistically significant reduced NF-L levels	–
HCPYCGWYRSPFSRVVHLYR [IMCY-0189]	reduced level of both inflammation and demyelination, although not statistically significant	No mice died	–	–	–	–	statistically significant reduced NF-L levels	No mice died	postponed disease onset	statistically significant reduced	statistically significant reduced	reduced end score	statistically significant reduced NF-L levels	reduced level of both inflammation and demyelination, although not statistically significant
